Test results taken from patent US12595251B2, “Amidines and amidine analogs for the treatment of bacterial infections and potentiation antibiotics” (GEORGIA STATE UNIVERSITY RESEARCH FOUNDATION, INC., priority 2018, dated 2026).
“Also recorded” adds a separate entry of the source. Structures can show the parent of a compound that is named as a salt.

What was measured:
wild-type E. coli = assay: Sensitization of wild-type E. coli toward antibiotics (MIC of antibiotic with/without sensitizer); format: cell-based, Escherichia coli; settings: for Sensitization fold: compound at 5 μg/ml, strain and antibiotic not stated in Table 8
Description: Bacteria were cultured with the antibiotic at various concentrations in the presence or absence of bacterial sensitizer for 24 hours at 37° C. Bacterial growth density was determined by measuring OD600 (absorbance measured at a wavelength of 600 nm). […]
The formula for calculating FIC is shown below: […]

wild type B. subtilis [1] = assay: Sensitization of B. subtilis toward antibiotics (MIC, OD600, 24 h); format: cell-based, Bacillus subtilis
Description: (§1) FIG. 22A is a bar graph showing that Compound M-1 sensitizes B. subtilis towards rifampicin as described in Example 13. Bacteria was cultured with rifampicin at various concentrations in the presence or absence of Compound M-1 for 24 hours at 37° C. and bacterial growth density was determined by measuring OD600. The y-axis is growth density measured in percent. The x-axis is rifampicin concentration measured in micrograms per milliliter (***: p<0.01).
Compound M-1 can sensitize Gram-positive bacteria such as B. subtilis towards traditional antibiotics. […] The sensitization fold is 32-fold for Compound M-1 and the FIC index is 0.14.

MRSA = assay: Sensitization of MRSA toward antibiotics (OD600, 24 h); format: cell-based, Staphylococcus aureus; settings: for Sensitization of MRSA towards rifampicin (qualitative): FIG. 22B, 24 h, 37 °C
Description: as §1, with “Bacteria” for “FIG. 22A is a bar graph showing that Compound M-1 sensitizes B. subtilis towards rifampicin as described in Example 13. Bacteria”
Compound M-1 (2.7 μg/ml) sensitizes MRSA towards existing antibiotics such as rifampicin (32-fold) (FIG. 22B) and trovafloxacin (16-fold). Rifampicin is the first line of defense against MRSA and many MRSA stains grow resistance to rifampicin through overexpression of efflux pump and other mechanisms. Combined with Compound M-1, rifampicin can be used more effectively against MRSA.

E. coli and MRSA = assay: Relative ratio of E. coli and MRSA under trovafloxacin with/without Compound A-8; format: cell-based, Escherichia coli; Staphylococcus aureus
Source text: FIG. 23A is a comparison of the relative ratio of E. coli and MRSA treated with the antibiotic trovafloxacin in the absence (pie chart on the left) and in the presence (pie chart on the right) of Compound A-8 as described in Example 14. In the absence of Compound A-8, trovafloxacin preferred to inhibit E. coli and the bacterial population was 78% MRSA. However, Compound A-8 sensitizes trovafloxacin to MRSA.
(§2) As a proof of concept, the relative ratio of E. coli and MRSA (FIG. 23A) or B. subtilis and MRSA (FIG. 23 B) was measured with and without Compound A-8. […] However, when trovafloxacin (8 ng/ml) is supplied with 1.5 μg/ml of Compound A-8, MRSA inhibition was achieved and E. coli was the dominant species (89% of the bacteria population).

B. subtilis and MRSA = assay: Relative ratio of B. subtilis and MRSA under trovafloxacin with/without Compound A-8; format: cell-based, Bacillus subtilis; Staphylococcus aureus
Description: FIG. 23B is a comparison of the relative ratio of B. sub and MRSA treated with the antibiotic trovafloxacin in the absence (pie chart on the left) and in the presence (pie chart on the right) of Compound A-8 as described in Example 14. […] However, Compound A-8 sensitizes trovafloxacin to MRSA.
as §2

B. subtilis = B. subtilis viability with antibiotic in absence or presence of compound (OD600, 20 h); format: cell-based, Bacillus subtilis; settings: for B. subtilis growth inhibition, compound in combination with erythromycin vs erythromycin alone: M-1 12.5 or 6 μM, A-2 6 or 12.5 μM, A-8
Description: Bacterial viability was then determined by measuring density using OD600. […] B. subtilis was also cultured with either novobiocin or tetracycline at varying concentrations either in the absence or presence of compound M-1 (12.5 μM) for 20 hours. Bacterial viability was subsequently determined by measuring density using OD600.
(§3) Bacterial viability was then determined by measuring density using OD600.

E. coli [2] = assay: E. coli viability with antibiotic in absence or presence of compound (OD600, 20 h); format: cell-based, Escherichia coli; settings: for E. coli growth inhibition, compound in combination with erythromycin: M-1 25 μM or 12 μM, A-1 12 μM, A-8, 20 h
Description: as §3

Klebsiella pneumoniae = assay: Sensitization of Klebsiella pneumoniae to clarithromycin; format: cell-based; settings: FIG. 16
Source text: The x-axis is clarithromycin measured in μg/ml and the y-axis is growth measured in percent.

E. coli outer membrane = E. coli outer membrane integrity, lysozyme lysis assay; format: cell-based, Escherichia coli; settings: lysozyme 50 μg/ml, Compound C 25 μg/ml, 10 min, OD600; dihydrochloride
Description: FIG. 20 is a graph of the E. coli outer membrane integrity measurement using the lysosomal lysis assay as described in Example 10. E. coli (OD600 measurement of about 0.5) was treated with Compound C with or without lysozyme for 10 minutes at room temperature. E. coli with impaired outer membrane caused by Compound C lead to decreased OD600 measurements. The x-axis is labeled with the compound and the y-axis is E. coli growth density determined by measuring OD600, Polymyxin B and pentamidine were used as positive controls.
The mechanism of action was also elucidated using a well-recognized lysosome assay that allows for assessment of membrane permeability. Specifically, lysozyme (about 14 KDa) breaks down bacterial cell wall and leads to bacterial lysis. However, lysozyme cannot penetrate intact Gram-negative bacterial outer membrane. With impaired Gram-negative bacterial membrane, lysozyme is able to diffuse across the disrupted membrane and enzymatically cleave peptidoglycan, which leads to bacterial lysis. […] In the absence of the sensitizer, no cell lysis was observed.

[3] = Lipid A binding assay using Dansyl-PMBN displacement on E. coli; design: species or system Escherichia coli; settings: 10 μM Dansyl-PMBN on E. coli, gradual addition of compound
Description: FIG. 21 is a graph describing the in vivo lipid A binding assay using Dansyl-PMBN as described in Example 11. Dansyl-PMBN (10 μM) was added to E. coli (OD600 measurement of about 0.5) and the fluorescent intensity at this time was recorded as F0. Sensitizers (Compound C, Compound E-20, and Polymyxin B) were added gradually and the fluorescent intensity was recorded 30 seconds later to determine the fluorescent intensity as a percent. The x-axis is concentration of the sensitizers measured in μM and the y-axis is the fluorescent intensity measured as a percent.
Lipid A is a key component of the outer membrane of Gram-negative bacteria and is responsible for maintaining its integrity of the outer membrane. The binding affinity of the compounds of the present invention to Lipid A was measured following literature procedures using a fluorescent conjugate of a polymyxin-B derivative (Dansyl-PMBN). Dansyl-PMBN binds to the lipid A part of LPS and leads to increased fluorescent intensity. […] When 10 μM of Dansyl-PMBN was added to E. coli stock (OD600 measurement around 0.5), the fluorescent intensity increased 10-fold.

E. coli [4] = assay: O-methyl novobiocin concentration inside E. coli (HPLC of lysate); format: cell-based, Escherichia coli; settings: 50 μg/ml O-methyl novobiocin, 24 h, with 10 μg/ml Compound M-1 vs without
Description: The antibiotic concentration inside E. coli with and without Compound M-1 was measured. The inactivated form of antibiotic was used because the active antibiotic would kill the bacteria or inhibit bacterial growth and this would lead to results that cannot be compared against other control experiments. O-Methyl novobiocin is an inactivated form of novobiocin that was used for this experiment.
E. coli was cultured with 50 μg/ml O-methyl novobiocin for 24 hours at 37° C. with continuous shaking in the absence and presence of 10 μg/ml Compound M-1. E. coli was then centrifuged and the supernatant was removed. To the precipitation that contained E. coli, PBS and novobiocin were added as internal standard and the resulting mixture was sonicated to lyse the cell. The mixture was diluted with acetonitrile (3×) and centrifuged. The supernatant, which contained O-methyl novobiocin, was analyzed by HPLC. The O-methyl novobiocin concentrations inside the bacteria increased 9.1-fold in E. coli in the presence of 10 μg/ml Compound M-1 (FIG. 19). Such results correlate well with the fact that 10 μg/ml Compound M-1 can sensitize E. coli towards novobiocin 8-fold.

E. coli [5] = assay: Resistance frequency analysis of E. coli on agar plates; format: cell-based, Escherichia coli; settings: from 6*10^8 CFU E. coli; antibiotic at 2 to 6-fold MIC with 10 μg/ml Compound M-1, 48 h
Description: Resistance frequency is an important issue to consider when developing new antimicrobial agents. Using a standard resistance frequency analysis procedure, the resistance frequency was determined. […] Colonies that survived the antibiotic and Compound M-1 combination were considered resistant mutant strains toward this combinational treatment. […] Compound M-1 lowers the resistance frequency of bacteria toward antibiotics. The component in the combination responsible for the resistance was next determined. The 16 resistant colonies were challenged with another combination-rifampicin and Compound M-1.

wild type B. subtilis [6] = assay: Sensitization of B. subtilis toward antibiotics (MIC, OD600, 24 h); format: cell-based, Bacillus subtilis; settings: Compound M-1 5.5 μg/ml
[7] = trovafloxacin in presence of Compound A-8

Structure (SMILES): Cc1cc(CCc2ccc(C(=N)N)cc2)cc(CCc2ccc(C(=N)N)cc2)c1 [Compound A-8, 4,4′-((5-Methyl-1,3-phenylene)bis(ethane-2,1-diyl))dibenzimidamide Dihydrochloride]
- Concentration required to sensitize wild type E. coli towards rifampicin 32-fold (wild-type E. coli): 7 µg/mL
- Sensitization fold (wild-type E. coli): 16
- Concentration required to sensitize B. subtilis towards rifampicin 32-fold (wild type B. subtilis [1]): 3 µg/mL
- Concentration required to sensitize MRSA towards rifampicin 32-fold (MRSA): 1.5 µg/mL
- Sensitization of MRSA towards rifampicin (qualitative) (MRSA): sensitize MRSA towards rifampicin
- E. coli share of the bacteria population (E. coli + MRSA) (E. coli and MRSA; trovafloxacin (8 ng/ml) with 1.5 μg/ml of Compound A-8): 89%
- MRSA share of the bacteria population (E. coli + MRSA) (E. coli and MRSA; [7]): 11%
- B. subtilis share of the bacteria population (B. subtilis + MRSA) (B. subtilis and MRSA; 8 ng/ml trovafloxacin and 1.5 μg/ml of Compound A-8): 99.5%
- MRSA share of the bacteria population (B. subtilis + MRSA) (B. subtilis and MRSA; [7]): 0.5%
- B. subtilis growth inhibition, compound in combination with erythromycin vs erythromycin alone (B. subtilis; 20 h): significant bacterial growth inhibition
- E. coli growth inhibition, compound in combination with erythromycin (E. coli [2]): growth inhibition was also observed
- Sensitization of Klebsiella pneumoniae to clarithromycin (Klebsiella pneumoniae): sensitization of Klebsiella pneumoniae to clarithromycin

Structure (SMILES): N=C(N)c1ccc(COc2cc(OCc3ccc(C(=N)N)cc3)cc(C(F)(F)F)c2)cc1 [Compound C, 1,3-Bis {(4-amidino)-benzyloxy}-5-trifluoromethylbenzene dihydrochloride]
- Minimal concentration achieving 10-fold sensitization of E. coli toward erythromycin (wild-type E. coli): 2.5 μg/ml
- Sensitization fold, rifampicin on E. coli (wild-type E. coli; Compound C 2 μg/ml): 8
- Sensitization fold, rifampicin on E. coli (wild-type E. coli; Compound C 4 μg/ml): 128
- Sensitization fold, rifampicin on E. coli (wild-type E. coli; Compound C 6 μg/ml): 1024
- Sensitization fold, rifampicin on E. coli (wild-type E. coli; Compound C 8 μg/ml): 2,048
- MIC of rifampicin on E. coli (wild-type E. coli; with Compound C 2 μg/ml): 1.25 µg/mL
- MIC of rifampicin on E. coli (wild-type E. coli; with Compound C 4 μg/ml): 0.08 µg/mL
- MIC of rifampicin on E. coli (wild-type E. coli; with Compound C 6 μg/ml): 0.01 µg/mL
- MIC of rifampicin on E. coli (wild-type E. coli; with Compound C 8 μg/ml): 0.005 µg/mL
- MIC of rifampicin on E. coli (wild-type E. coli; with Compound C 10 μg/ml): 0.0006 µg/mL
- Lysozyme-induced lysis of E. coli (membrane integrity) (E. coli outer membrane): quick bacterial lysis; also recorded: more potent than pentamidine
- Binding to lipid A (decrease of Dansyl-PMBN fluorescent intensity) [3]: bind to lipid A

Structure (SMILES): Cc1cc(COc2ccc(C(=N)N)cc2)cc(COc2ccc(C(=N)N)cc2)c1 [Compound M-1, 4,4′-(((5-Methyl-1,3-phenylene)bis(methylene))bis(oxy))dibenzimidamide Hydrochloride]
- Sensitization of E. coli towards novobiocin (wild-type E. coli; 10 μg/ml Compound M-1): 8 fold
- Sensitization fold (wild-type E. coli): 8
- Increase of O-methyl novobiocin concentration inside E. coli (E. coli [4]): 9.1 fold
- Colonies resistant to antibiotic-Compound M-1 combinations (E. coli [5]): 16 colonies
- FIC index, rifampicin on B. subtilis (wild type B. subtilis [1]; 5.5 μg/ml Compound M-1): 0.11
- Sensitization fold, B. subtilis towards rifampicin (wild type B. subtilis [1]; 5.5 μg/ml Compound M-1): 256 fold
- Growth density compared with no-treatment group (wild type B. subtilis [1]; 5.5 μg/ml of Compound M-1 by itself): 80%
- MIC (wild type B. subtilis [1]; Bacillus subtilis, read-out: MIC on wild type B. subtilis): 50 µg/mL
- Sensitization fold, MRSA towards rifampicin (MRSA; Compound M-1 2.7 μg/ml): 32 fold
- Sensitization fold, MRSA towards trovafloxacin (MRSA; Compound M-1 2.7 μg/ml): 16 fold
- Sensitization of MRSA towards rifampicin (qualitative) (MRSA): sensitize MRSA towards rifampicin
- viability at 12.5 µM (B. subtilis; Bacillus subtilis, 12.5 μM, 20 h, read-out: B. subtilis viability, compound alone): 80%
- B. subtilis growth inhibition, compound in combination with novobiocin or tetracycline (B. subtilis; Compound M-1 12.5 μM, 20 h): significant bacterial growth inhibition
- Effect of lipoteichoic acid (LTA) on growth inhibition by erythromycin + M-1 in B. subtilis (B. subtilis; LTA 1 mg/mL): could be inhibited by co-culturing with lipoteichoic acid (LTA)
- B. subtilis growth inhibition, compound in combination with erythromycin vs erythromycin alone (B. subtilis; 20 h): significant bacterial growth inhibition
- Effect of LPS or Mg2+ on sensitization of E. coli by M-1 with erythromycin (E. coli [2]; 2 mg/mL LPS or 21 mM Mg2+, M-1 12 μM): inhibited
- E. coli growth inhibition, compound in combination with erythromycin (E. coli [2]): significant bacterial growth inhibition
- FIC index, erythromycin on B. subtilis (wild type B. subtilis [6]): 0.14
- Sensitization fold, B. subtilis towards clarithromycin (wild type B. subtilis [6]): 32 fold
- Sensitization fold, B. subtilis towards clindamycin (wild type B. subtilis [6]): 16 fold
- Sensitization fold, B. subtilis towards entrapenem (wild type B. subtilis [6]): 4 fold
- Sensitization fold, B. subtilis towards erythromycin (wild type B. subtilis [6]): 32 fold
- Sensitization fold, B. subtilis towards methicillin (wild type B. subtilis [6]): 4 fold
- Sensitization fold, B. subtilis towards novobiocin (wild type B. subtilis [6]): 4 fold
- Sensitization fold, B. subtilis towards trovafloxacin (wild type B. subtilis [6]): 8 fold
